Where a name gives a salt, the structure may show the parent alone.
What was measured:
Format in all cases: biochemical
human plasma [1] = assay: Human plasma anticoagulation, thrombin time (TT); details: concentration required to double thrombin time, linear extrapolation
Protocol: (§1) Dog plasma and rat plasma is obtained from conscious mixed-breed hounds (either sex, Hazelton-LRE, Kalamazoo, Mich., U.S.A.) or from anesthetized male Sprague-Dawley rats (Harlan Sprague-Dawley, Inc., Indianapolis, Ind., U.S.A.) by venipuncture into 3.8 percent citrate. Fibrinogen is prepared from in-date ACD human blood as the fraction I-2 according to previous procedures and specifications. […] Human fibrinogen is also purchased as 98 percent pure/plasmin free from American Diagnostica, Greenwich, Conn. Coagulation reagents ACTIN, Thromboplastin, and Human plasma are from Baxter Healthcare Corp., Dade Division, Miami, Fla. Bovine thrombin from Parke-Davis ([…], Mich.) is used for coagulation assays in plasma.
(§2) Coagulation assay procedures are as previously described. […] A CoAScreener coagulation instrument (American LABor, Inc.) is used for all coagulation assay measurements. The prothrombin time (PT) is measured by adding 0.05 mL saline and 0.05 mL Thromboplastin-C reagent to 0.05 mL test plasma. The activated partial thromboplastin time (APTT) is measured by incubation of 0.05 mL test plasma with 0.05 mL Actin reagent for 120 seconds followed by 0.05 mL CaCl2 (0.02M). The thrombin time (TT) is measured by adding 0.05 mL saline and 0.05 mL thrombin (10 NIH units/mL) to 0.05 mL test plasma. The compounds of Formula I are added to human or animal plasma over a wide range of concentrations to determine prolongation effects on the APTT, PT, and TT assays. Linear extrapolations are performed to estimate the concentrations required to double the clotting time for each assay.

human plasma [2] = assay: Human plasma anticoagulation, prothrombin time (PT); details: concentration required to double PT, linear extrapolation
Protocol: as §1, §2

human plasma [3] = assay: Human plasma anticoagulation, activated partial thromboplastin time (APTT); details: concentration required to double APTT, linear extrapolation
Protocol: as §1, §2

Structure (SMILES)	Human Plasma Anticoagulation 2x Clotting time TT (human plasma [1])	Human Plasma Anticoagulation 2x Clotting time PT (human plasma [2])	Human Plasma Anticoagulation 2x Clotting time APTT (human plasma [3])
Nc1ccc(CCNC(=O)[C@@H]2CCCN2C(=O)[C@@H](CC2CCCCC2)NCC(=O)O)cc1 [Example 63, HO2 CCH2 -D-Cha-Pro-4-NHCH2 CH2 C6 H4 NH2.HCl]	680 ng/mL	–	–
NCC1CCC(CNC(=O)[C@@H]2CCCN2C(=O)[C@@H](CC2CCCCC2)NCC(=O)O)CC1 (stereo partly drawn) [Example 79, HO2 CCH2 -D-Cha-Pro-4-NHCH2 C6 H10 CH2 NH2.HCl]	140 ng/mL	2,400 ng/mL	1,700 ng/mL
O=C(O)CN[C@H](CC1CCCCC1)C(=O)N1CCC[C@H]1C(=O)NCC1CCNCC1 [Example 53, HO2 CCH2 -D-Cha-Pro-4-NHCH2 -piperidine.HCl]	1,400 ng/mL	–	–
CCS(=O)(=O)N[C@H](Cc1ccccc1)C(=O)N1CCC[C@H]1C(=O)NCc1cccc(NC(=N)N)c1 [Example 36, EtSO2 -D-Phe-Pro-m-NHCH2 C6 H4 NHC(NH)NH2.HCl]	7,700 ng/mL	> 91,000 ng/mL	> 91,000 ng/mL
N=C(N)NCCCCNC(=O)[C@@H]1CCCN1C(=O)[C@@H]1NCC[C@H]2CCCC[C@H]21 [Example 61, N-[4-[(aminoiminomethyl)amino]butyl]-1-[[(4aR,8aR)-decahydro-1(R)-isoquinolinyl]carbonyl]-1-prolinamide trihydrochloride]	45 ng/mL	–	–
N=C(N)Nc1ccc(CCNC(=O)[C@@H]2CCCN2C(=O)[C@@H]2NCC[C@@H]3CCCC[C@@H]32)cc1 [Example 39, D-1-piq-Pro-p-NHCH2 CH2 C6 H4 NHC(NH)NH2.2HCl]	5,300 ng/mL	–	–
CCS(=O)(=O)N[C@H](Cc1ccccc1)C(=O)N1CCC[C@H]1C(=O)NCCCc1cccc(C(=N)N)c1 [Example 31, EtSO2 -D-Phe-Pro-m-NHCH2 CH2 CH2 -C6 H4 C(=NH)NH2.HCl]	–	30,000 ng/mL	–
N=C(N)c1ccc(CNC(=O)[C@@H]2CCCN2C(=O)[C@@H](CC2CCCCC2)NCC(=O)O)s1 [Example 65, N-(carboxymethyl)-D-cyclohexylalanyl-N-[[5-(aminoiminomethyl)thiophen-2-yl]methyl]-L-prolinamide hydrochloride]	1 ng/mL	–	48 ng/mL
N=C(N)Nc1cccc(CCNC(=O)[C@@H]2CCCN2C(=O)[C@@H]2NCC[C@@H]3CCCC[C@@H]32)c1 [Example 41, D-1-Piq-Pro-m-NHCH2 CH2 C6 H4 NHC(NH)NH2.2HCl]	–	> 91,000 ng/mL	> 91,000 ng/mL
N=C(N)NCc1ccc(CNC(=O)[C@@H]2CCCN2C(=O)[C@H](N)Cc2ccccc2)cc1 [Example 9, D-Phe-Pro-p-NHCH2 C6 H4 CH2 NHC(NH)NH2.2TFA]	> 91,000 ng/mL	–	–
Nc1ccc(CNC(=O)[C@@H]2CCCN2C(=O)[C@@H](CC2CCCCC2)NCC(=O)O)cc1 [Example 62, HO2 CCH2 -D-Cha-Pro-4-NHCH2 C6 H4 NH2.HCl]	54 ng/mL	–	–
N=C(N)Nc1cccc(CNC(=O)[C@@H]2CCCN2C(=O)[C@@H]2NCC[C@@H]3CCCC[C@@H]32)c1 [Example 40, D-1-Piq-Pro-m-NHCH2 C6 H4 NHC(NH)NH2.2HCl]	–	> 91,000 ng/mL	> 91,000 ng/mL
NCc1ccc(CNC(=O)[C@@H]2CCCN2C(=O)[C@H](N)Cc2ccccc2)cc1 [Example 10, D-Phe-Pro-p-NHCH2 C6 H4 CH2 NH2.HCl]	420 ng/mL	–	–
N=C(N)c1ccc(CNC(=O)[C@@H]2C[C@@H]3CCCC[C@@H]3N2C(=O)[C@H]2CCCCN2)cc1 (relative stereo) [Example 20, (S-cis)-N-[[4-(aminoiminomethyl)phenyl]methyl]-octahydro-1-D-homoprolyl-1H-indole-2-carboxamide trihydrochloride]	–	600 ng/mL	–
N=C(N)NCCCCCCNC(=O)[C@@H]1CCCN1C(=O)[C@H](N)Cc1ccccc1 [Example 5, D-Phe-Pro-NH(CH2)6 NHC(NH)NH2.HCl]	30,000 ng/mL	–	–
O=C(O)CN[C@H](CC1CCCCC1)C(=O)N1CCC[C@H]1C(=O)NCCCC1CCNCC1 [Example 55, HO2 CCH2 -D-Cha-Pro-4-NHCH2 CH2 CH2 -piperidine.HCl]	–	> 91,000 ng/mL	> 91,000 ng/mL
Nc1ccc(CNC(=O)[C@@H]2CCCN2C(=O)[C@H](N)Cc2ccccc2)cc1 [Example 13, D-Phe-Pro-p-NHCH2 C6 H4 NH2.HCl]	660 ng/mL	–	–
CCS(=O)(=O)N[C@H](Cc1ccccc1)C(=O)N1CCC[C@H]1C(=O)NCCCc1ccc(C(=N)N)cc1 [Example 30, EtSO2 -D-Phe-Pro-p-NHCH2 CH2 CH2 -C6 H4 C(=NH)NH2.HCl]	1,000 ng/mL	–	14,000 ng/mL
N=C(N)Nc1ccc(CNC(=O)[C@@H]2CCCN2C(=O)[C@@H]2NCC[C@@H]3CCCC[C@@H]32)cc1 [Example 38, D-1-piq-pro-p-NHCH2 C6 H4 NHC(NH)NH2.2HCl]	540 ng/mL	–	6,100 ng/mL
N=C(N)NCCCNC(=O)[C@@H]1CCCN1C(=O)[C@H](N)Cc1ccccc1 [Example 7, D-Phe-Pro-NH(CH2)3 NHC(NH)NH2.HCl]	490 ng/mL	–	–
CCS(=O)(=O)N[C@H](Cc1ccccc1)C(=O)N1CCC[C@H]1C(=O)NCc1cccc(C(=N)N)c1 [Example 24, EtSO2 -D-Phe-Pro-m-NHCH2 -C6 H4 C(=NH)NH2.HCl]	1,000 ng/mL	25,000 ng/mL	–
N=C(N)NCCCCCNC(=O)[C@@H]1CCCN1C(=O)[C@H](N)Cc1ccccc1 [Example 6, D-Phe-Pro-NH(CH2)5 NHC(NH)NH2.HCl]	390 ng/mL	–	–
CCC(CC)C(=O)N[C@@H](CCC(=O)O)C(=O)N1CCC[C@H]1C(=O)NCc1ccc(C(=N)N)cc1 [Example 90, (C2 H5)2 CHCO-Glu-Pro-p-NHCH2 C6 H4 C(NH)NH2.HCl]	330 ng/mL	–	–
N=C(N)c1ccc(CNC(=O)[C@@H]2CCCN2C(=O)[C@@H](CC2CCCCC2)NCCCC(=O)O)cc1 [Example 85, N-(3-carboxypropyl)-D-cyclohexylalanyl-N-[[4-(aminoiminomethyl)phenyl]methyl]-L-prolinamide hydrochloride]	4.9 ng/mL	–	100 ng/mL
CCS(=O)(=O)N[C@H](Cc1ccccc1)C(=O)N1CCC[C@H]1C(=O)NCCCCN=C(N)N.Cl [Example 1, EtSO2 -D-Phe-Pro-Agm.Hcl]	250 ng/mL	–	–
